One experiment addresses T1, USP25 (Homo sapiens, UniProt Q9UHP3).
T1 construct: purchased R&D Systems
T1 sequence (Q9UHP3 1-1055): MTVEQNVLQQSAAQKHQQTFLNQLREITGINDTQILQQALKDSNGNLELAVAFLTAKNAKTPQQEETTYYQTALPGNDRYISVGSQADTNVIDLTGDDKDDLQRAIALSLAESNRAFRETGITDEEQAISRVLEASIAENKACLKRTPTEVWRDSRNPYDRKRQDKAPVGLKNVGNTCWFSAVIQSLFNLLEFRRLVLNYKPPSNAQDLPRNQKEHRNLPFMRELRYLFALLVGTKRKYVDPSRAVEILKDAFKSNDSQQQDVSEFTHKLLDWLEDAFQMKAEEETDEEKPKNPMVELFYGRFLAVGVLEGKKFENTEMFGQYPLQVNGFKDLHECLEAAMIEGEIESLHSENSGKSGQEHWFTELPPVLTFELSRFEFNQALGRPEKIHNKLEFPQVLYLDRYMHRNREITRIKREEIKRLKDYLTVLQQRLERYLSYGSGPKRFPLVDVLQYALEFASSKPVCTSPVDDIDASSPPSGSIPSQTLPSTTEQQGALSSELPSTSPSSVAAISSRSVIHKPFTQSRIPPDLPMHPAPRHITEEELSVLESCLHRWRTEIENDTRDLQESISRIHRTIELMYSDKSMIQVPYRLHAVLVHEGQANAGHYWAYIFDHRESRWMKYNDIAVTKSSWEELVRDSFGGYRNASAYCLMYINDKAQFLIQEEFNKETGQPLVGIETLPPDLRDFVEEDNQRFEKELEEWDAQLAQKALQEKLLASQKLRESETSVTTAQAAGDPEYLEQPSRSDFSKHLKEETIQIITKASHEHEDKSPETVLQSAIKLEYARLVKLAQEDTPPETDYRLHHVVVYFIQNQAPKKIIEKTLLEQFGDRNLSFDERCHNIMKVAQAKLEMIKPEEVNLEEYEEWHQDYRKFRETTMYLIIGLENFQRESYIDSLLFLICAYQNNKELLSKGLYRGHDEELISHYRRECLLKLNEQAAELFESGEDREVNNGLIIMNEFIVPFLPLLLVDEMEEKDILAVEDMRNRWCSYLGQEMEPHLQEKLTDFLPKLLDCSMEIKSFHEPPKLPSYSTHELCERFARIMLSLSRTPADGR
The experiment can be described thus: USP25 activity by the Ub-Rh110 method. Type of experiment: biochemical. The settings on record: purified USP25 15 nM, Ub-Rh110 125 nM; read-out: Inhibitory activity (IC50) USP25. As to the method:
USP25 activity was determined by the Ub-Rh110 method.
Purified USP25 was purchased from R&D Systems. The experimental procedures were the same as those in Example 2. The final concentration of USP25 was 15 nM, the final concentration of the substrate Ub-Rh110 was 125 nM, and the final volume of the whole reaction system was 20 μL.
(§1) With reference to Example 2 and Example 3, USP28 and USP25 inhibitor activity tests were performed on representative example compounds of the present disclosure and the following comparative compound structures.

The next experiment deals with T2, USP28 (Homo sapiens, UniProt Q96RU2).
T2 construct: purchased R&D Systems China Co., Ltd. (R&D Systems)
T2 sequence (Q96RU2 1-1077): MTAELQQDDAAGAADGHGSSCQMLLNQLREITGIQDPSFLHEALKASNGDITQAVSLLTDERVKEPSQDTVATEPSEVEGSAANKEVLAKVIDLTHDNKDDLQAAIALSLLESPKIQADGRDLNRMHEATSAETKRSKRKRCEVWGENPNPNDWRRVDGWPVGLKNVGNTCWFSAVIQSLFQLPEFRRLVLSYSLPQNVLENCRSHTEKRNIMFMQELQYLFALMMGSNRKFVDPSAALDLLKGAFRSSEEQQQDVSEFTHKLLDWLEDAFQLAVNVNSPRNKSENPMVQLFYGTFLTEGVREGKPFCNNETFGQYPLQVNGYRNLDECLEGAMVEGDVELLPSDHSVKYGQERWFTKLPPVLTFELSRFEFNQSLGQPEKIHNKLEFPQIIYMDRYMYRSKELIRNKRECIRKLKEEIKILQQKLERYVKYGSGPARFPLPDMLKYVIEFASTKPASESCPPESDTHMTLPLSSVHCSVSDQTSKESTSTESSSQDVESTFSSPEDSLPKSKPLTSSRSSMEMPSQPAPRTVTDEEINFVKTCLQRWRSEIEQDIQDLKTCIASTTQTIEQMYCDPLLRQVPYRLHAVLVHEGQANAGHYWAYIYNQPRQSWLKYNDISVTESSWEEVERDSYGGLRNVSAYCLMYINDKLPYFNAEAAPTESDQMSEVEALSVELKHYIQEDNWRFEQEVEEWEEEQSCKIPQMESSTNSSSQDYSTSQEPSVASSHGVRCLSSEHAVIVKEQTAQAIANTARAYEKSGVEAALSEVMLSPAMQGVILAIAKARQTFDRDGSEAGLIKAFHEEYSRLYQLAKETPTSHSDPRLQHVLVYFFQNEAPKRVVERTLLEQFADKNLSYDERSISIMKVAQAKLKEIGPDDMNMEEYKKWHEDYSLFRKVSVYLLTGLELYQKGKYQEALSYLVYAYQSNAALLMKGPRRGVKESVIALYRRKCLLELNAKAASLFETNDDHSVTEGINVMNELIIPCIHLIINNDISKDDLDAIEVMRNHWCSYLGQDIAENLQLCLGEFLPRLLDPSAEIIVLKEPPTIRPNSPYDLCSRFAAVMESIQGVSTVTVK
The experiment can be described thus: USP28 activity by the ubiquitin-rhodamine 110 (Ub-Rh110) method. Type of experiment: biochemical. As to conditions: purified USP28 4 nM, Ub-Rh110 125 nM, 30 min preincubation; read-out: Inhibitory activity (IC50) USP28. How it is done:
USP28 activity was determined by the ubiquitin-rhodamine 110 (Ub-Rh110) method.
Purified USP28 and a substrate Ub-Rh110 used for determining deubiquitinase activity were purchased from R&D Systems China Co., Ltd. (R&D Systems). First, test compounds were each dissolved in DMSO to prepare a 10 mM stock solution, and then the stock solution was diluted to the desired concentration (with a DMSO content of 0.5%) with a buffer solution [containing 20 mM Tris-HCl (pH 8.0), 2 mM CaCl2), 3 mM BME, 0.01% Prionex, and 0.01% Triton X-100]. The prepared test compound solutions at different concentrations were mixed uniformly with USP28 (final concentration: 4 nM) in a 96-well plate, and the mixture was incubated at r. t. for 30 min before the addition of Ub-Rh110 to 125 nM. The final volume of the whole reaction system was 20 μL. The released fluorescence (excitation wavelength: 485 nm, emission wavelength: 535 nm) was detected immediately on a microplate reader after the addition of the substrate. A blank control group (DMSO instead of test compound) and a substrate group (no USP28 added) were set simultaneously. The inhibitory rates of the test compounds for USP28 were calculated according to the following formula:
Inhibition %=(1−[(fluorescence valuetest compound−fluorescence valuesubstrate)/(fluorescence valuecontrol−fluorescence valuesubstrate])×100%
According to the inhibitory rates of the test compounds for USP28 under different concentrations, IC50 values were calculated.
as §1

The structures appear in SMILES notation.

The term IC50 denotes the concentration that gives 50% inhibition. With `CNc1c(C(=O)NCCc2ccc(N3CC4CCC(C3)N4)cc2)cnc2[nH]ccc12` [Compound I-11], the IC50 was 500 to 1000 nM on USP25 and 50 to 500 nM on USP28.
For `CCn1ccc2c(NC)c(C(=O)NCCc3ccc(C4CC5CCC(C4)N5)cc3)cnc21` (centres unmarked) [Compound I-17], the 50% inhibitory concentration (IC50) on USP25 is 50 to 500 nM; at USP28 it was < 50 nM.
As to `CCn1ccc2c(NC)c(C(=O)NCCc3c[nH]c4ccccc34)cnc21` [Compound I-08], the IC50 on USP25 was 50 to 500 nM; on USP28, < 50 nM.
As to `CCn1ccc2c(NC)c(C(=O)N[C@@H]3CCc4cc(N5CC6CCC(C5)N6)ccc4C3)cnc21` [Compound I-26], the half-maximal inhibitory concentration (IC50) at USP25 was in the range of 500 to 1000 nM; at USP28, 50 to 500 nM.

Source of the values: patent US20250289829A1, “DEUBIQUITINASE INHIBITOR AND USE THEREOF” (CHASER THERAPEUTICS, INC., priority 2022, published 2025).
